Reference: patent publication US6645911B2, “Synergistic herbicidal mixtures” (BASF Aktiengesellschaft, priority 2000, dated 2003)

Experiments:
Type in all cases: in vivo
[1] = system: Alopecuris myosuroides; assay: Postemergence herbicidal greenhouse evaluation, Test Serie A (Table I); conditions: 21 days after treatment
Protocol: (§1) In the following examples, synergism for two-way combinations is determined by the Colby^1 method, i.e. the expected (or predicted) response of the combination is calculated by taking the product of the observed response for each individual component of the combination when applied alone divided by 100 and subtracting this value from the sum of the observed response for each component when applied alone. Synergism of the combination is then determined by comparing the observed response of the combination to the expected (or predicted) response as calculated from the observed responses of each individual component alone. If the observed response of the combination is greater than the expected (or predicted) response then the combination is said to be synergistic and falls within the definition of synergistic effect as previously defined.
(§2) Postemergence Herbicidal Greenhouse Evaluations
(§3) Plant seeds are sown in pots containing a loamy sand soil (0.5 l). The herbicides are applied as single treatments, or in a combination comprising a compound of formula I and a second compound as defined above, after emergence of weeds and crop. The herbicidal performance is assessed as percent damage in comparison to the untreated control plants. The assessment is done 21 days after the treatment. Wheat and barley are treated at the 3-4 leaf stage, the broad-leaf weeds at the 2-4 leaf stage and annual grasses at the 2-3 leaf stage. [formula]
(§4) For the compound of formula I picolinafen is employed.
(§5) The damage caused by the chemicals was assessed with reference to a scale from 0 to 100% in comparison with the untreated control plants. 0 means no damage and 100 means compete destruction of the plants.

[2] = system: Galium aparine; assay: as above; conditions: 21 days after treatment
Protocol: as §1, §2, §3, §4, §5

[3] = system: Lamium purpurium; assay: as above; conditions: 21 days after treatment
Protocol: as §1, §2, §3, §4, §5

[4] = system: Papaver rhoeas; assay: as above; conditions: 21 days after treatment
Protocol: as §1, §2, §3, §4, §5

[5] = system: Stellaria media; assay: as above; conditions: 21 days after treatment
Protocol: as §1, §2, §3, §4, §5

[6] = system: Stellaria media; assay: Postemergence herbicidal greenhouse evaluation, Test Serie A (Table II, picolinafen/carfentrazone-ethyl); conditions: 21 days after treatment
Protocol: as §1, §2, §3, §4, §5

[7] = system: Anthimis mixta; assay: Postemergence herbicidal evaluation, Test Serie B, in spring wheat (Table III); conditions: weed growth stage 14, test period 14 days
Protocol: as §1, §5
(§6) For the post-emergence treatment, the test plants were first grown to a height of 3 to 20 cm, depending on the growth habit, and only then treated. The herbicides were suspended or emulsified in water as the vehicle and sprayed with the aid of finely distributing nozzles.
(§7) Cinidon-ethyl was formulated as a 20% by weight emulsion concentrate and employed in the spray mixture with addition of that amount of solvent system with which the active ingredient had been applied at the application rates shown in the tables.
(§8) Picolinofen was formulated as a 10% by weight emulsion concentrate and empolyed in the spray mixture with addition of that amount of solvent system with which the active ingredient had been applied at the rates shown in the tables.
(§9) The test period extended over 14 days. During this time, the plants were attended, and their responses to the treatments with active ingredients were recorded (Tables III and IV).

[8] = system: Veronica persicaria; assay: as above; conditions: weed growth stage 14, test period 14 days
Protocol: as §1, §5, §6, §7, §8, §9

[9] = system: Stellaria media; assay: Postemergence herbicidal evaluation, Test Serie B, in spring barley (Table IV); conditions: weed growth stage 22, test period 14 days
Protocol: as §1, §5
For the post-emergence treatment, the test plants were first grown to a height of 3 to 20 cm, depending on the growth habit, and only then treated. […]
as §9

[10] = Picolinafen 30 g/ha, Flufenacet 0 g/ha
[11] = Picolinafen 60 g/ha, Flufenacet 0 g/ha
[12] = Picolinafen 15 g/ha, Flufenacet 0 g/ha
[13] = Picolinafen 0 g/ha, Flufenacet 15 g/ha
[14] = Picolinafen 0 g/ha, Flufenacet 30 g/ha
[15] = Picolinafen 0 g/ha, Flufenacet 120 g/ha

O=C(Nc1ccc(F)cc1)c1cccc(Oc2cccc(C(F)(F)F)c2)n1 [Picolinafen, N-(4-fluorophenyl)-6-(-3-trifluoromethylphenoxy)-pyrid-2-ylcarboxamide]
% Control OBS [1, 10]: 20% | % Control OBS [1, 11]: 43% | % Control OBS ([1]; Picolinafen 120 g/ha, Flufenacet 0 g/ha): 60% | % Control OBS [2, 12]: 78% | % Control OBS [3, 10]: 15% | % Control OBS [4, 10]: 15% | % Control OBS [4, 11]: 35% | % Control OBS [5, 12]: 53% | % Control OBS [5, 10]: 73% | % Control OBS ([6]; Picolinafen 30 g/ha, Carfentrazone-ethyl 0 g/ha): 37% | % Control OBS ([6]; Picolinafen 60 g/ha, Carfentrazone-ethyl 0 g/ha): 45% | % Control OBS ([6]; Picolinafen 120 g/ha, Carfentrazone-ethyl 0 g/ha): 72% | % Control OBS ([7]; Picolinafen 50 g/ha alone): 10% | % Control OBS ([8]; Picolinafen 50 g/ha alone): 10% | % Control OBS ([9]; Picolinafen 50 g/ha alone): 10%

CC(C)N(C(=O)COc1nnc(C(F)(F)F)s1)c1ccc(F)cc1 [Flufenacet]
% Control OBS [1, 13]: 75% | % Control OBS [2, 13]: 40% | % Control OBS [2, 14]: 55% | % Control OBS [3, 15]: 18% | % Control OBS [4, 13]: 0% | % Control OBS [4, 14]: 0% | % Control OBS [4, 15]: 18% | % Control OBS [5, 14]: 0% | % Control OBS ([5]; Picolinafen 0 g/ha, Flufenacet 60 g/ha): 0% | % Control OBS [5, 15]: 0%

CCOC(=O)C(Cl)Cc1cc(-n2nc(C)n(C(F)F)c2=O)c(F)cc1Cl (racemic) [Carfentrazone-ethyl, ethyl (RS)-2-chloro-3-[2-chloro-5-(4-difluoromethyl-4,5-dihydro-3-methyl-5-oxo-1H-1,2,4-triazol-1-yl)-4-fluorophenyl]propionate]
% Control OBS ([6]; Picolinafen 0 g/ha, Carfentrazone-ethyl 3.75 g/ha): 0% | % Control OBS ([6]; Picolinafen 0 g/ha, Carfentrazone-ethyl 7.50 g/ha): 0% | % Control OBS ([6]; Picolinafen 0 g/ha, Carfentrazone-ethyl 15 g/ha): 0% | % Control OBS ([6]; Picolinafen 0 g/ha, Carfentrazone-ethyl 30 g/ha): 0%

CCOC(=O)/C(Cl)=C/c1cc(N2C(=O)C3=C(CCCC3)C2=O)ccc1Cl [Cinidon-ethyl, ethyl (Z)-2-chloro-3-[2-chloro-5-(1,3-dioxo-4,5,6,7-tetrahydroisoindol-2-yl)-phenyl]acrylate]
% Control OBS ([7]; Cinidon-ethyl 50 g/ha alone): 52% | % Control OBS ([8]; Cinidon-ethyl 50 g/ha alone): 50% | % Control OBS ([9]; Cinidon-ethyl 50 g/ha alone): 23%
